Measured values: patent publication US6413521B1, “Helminth parasite antigen with aminopeptidase-like activity” (The Barbraham Institute, priority 1993, dated 2002)

Experiments:
pig ApA and ApM = conditions: Aoyagi et al., J. Antibiotics 43(2); cited from earlier work
Con A Oo12 ApA activity = assay: Con A O12 aminopeptidase inhibition assay, ApA (α-glutamic p-nitroanilide); assay type: biochemical, Ostertagia ostertagi
Procedure: (§1) The effect of various protease inhibitors on Oo12 activity was assayed and included amastatin (aminopeptidase inhibitor), actinonin (aminopeptidase inhibitor), bestatin (aminopeptidase inhibitor), EDTA (metallo-protease inhibitor), E64 (cysteine protease inhibitor), pepstatin (aspartic protease inhibitor), 1,10 phenanthroline (metallo-protease inhibitor) and 3,4-dichloroisocoumarin (DCI, serine protease inhibitor). 10 μl Con A Oo12 and 100 μl 50 mM Mops buffer, pH 7.0 was added to a microtitre plate well and 2-4 μl of enzyme inhibitor added, to give a final concentration of 0.5 mM and 1 mM actinonin, 50 μM and 100 μM bestatin, 1 mM and 15 mM EDTA, 50 μM and 100 μM E64, 10 and 50 μM pepstatin, 1 mM and 10 mM 1,10 phenanthroline, 100 μM and 500 μM DCI. The plate was preincubated at 37° C. for 20-28 minutes and then assayed for ApM and ApA activity. 100 μl 2 mM leucine p-nitroanilide (ApM) or α-glutamic p-nitroanilide (ApA)/Mops was added per well and the optical density (OD) at 405 nm read using an Elisa plate reader. The plates were incubated at 37° C. for 45-48 minutes and the final OD reading was then taken. The OD change per minute per 10 μl sample was calculated. All assays were carried out in triplicate.

Con A Oo12 ApM activity = assay: Con A O12 aminopeptidase inhibition assay, ApM (leucine p-nitroanilide); assay type: biochemical, Ostertagia ostertagi
Procedure: as §1

Oc12 = assay: Blot of O. circumcincta extracts probed with biotinylated lectins; assay type: binding, Ostertagia circumcincta; conditions: electroblot of O.circumcincta extracts
Text: The O.circumcincta extracts were electroblotted alongside a sample of H110D and probed with several biotinylated lectins to determine which, if any, would bind to Oc12. (FIG. 8). Biotinylated Concanavalin A, Ulex europaeus, Triticum vulgaris, Dolichos biflorus and Arachis hypogea lectins were used at dilutions optimised for use with H110D. […] U.europaeus lectin bound to several low molecular weight bands and may be used as an affinity chromatography column for removing low molecular weight protein from OcThHS. The wash-through fractions from such a column were applied to a Con A affinity column and the bound proteins were eluted with a gradient of 0-100% 0.5M methylglucoside (FIG. 9). Fractions were assayed for aminopeptidase-like activity (FIG. 10). Aminopeptidase M-like activity was present in the binding fractions.

Ostertagia ostertagi PHP = assay: Protease digestion of Oo PhP, release of ApM activity; assay type: biochemical
Procedure: Method: Oo PhP was resuspended in 50 mM Mops buffer, pH 7.0 to give 0.1 mg pellet/ml. 50 μl aliquots were prewarmed at 37° C. for 39 minutes. 5 μl of either α-Chymotrypsin (Sigma type VII, 50 units/mg solid), Subtilisin (Sigma type VIII, 11.6 units/mg solid), Trypsin (Sigma, TPCK-treated type XIII, 9700 units/mg solid) or Thermolysin (Sigma, 37 units/mg solid dissolved in 1 mM KCl/2 mM CaCl) was added to give final protease concentrations of 5, 50, 500, 1000 and 2000 μg/ml. Aliquots containing chymotrypsin, trypsin or subtilisin were then incubated at 37° C. for 1 hour and protease activity inhibited by the addition of 1 μl 10 mM 3,4-dichloroisocoumarin (DCI). Aliquots containing thermolysin were incubated for 2 hours at 37° C. and activity inhibited by the addition of 1 μl 0.25M EDTA. Samples were spun at high speed on the airfuge at 20 psi for 20 minutes at room temperature. 5 μl samples were assay for ApM activity, using the microtitre plate method, over 29.6 minutes with methionine-pNA as substrate.

[1] = test system: O. ostertagi extracted residue (microsomal aminopeptidase); assay: Trypsin digestion of O12: aminopeptidase activity released from extracted O. ostertagi residue; assay type: biochemical, Ostertagia ostertagi
Procedure: The residue obtained by centrifuging an homogenate of O. ostertagi in phosphate-buffered saline containing 0.02% sodium azide (PBSa) at 26,500 g (max) for 20 minutes in a swing-out rotor was re-extracted 3 times with PBSa, once with 1% polyoxyethylenesorbitan monolaurate (Tween 20) in PBSa and once with 50 mM 3-[N-morpholino]propane-sulphonic acid (MOPS) pH 8.0. The extracted residue was resuspended in 50 mM MOPS to give the equivalent of 0.17 g worm starting material per ml. Aliquots were digested with 0.5, 5, 50 or 500 μg TPCK-trypsin (trypsin treated with L-1-tosylamide-2-phenylethylchloromethyl ketone)/ml. Digestions were stopped by the addition of 10 mM DCI (15 μl/ml). […] Release of microsomal aminopeptidase A activity was negligible from pellets digested with 0-50 μg TPCK-trypsin/ml.
In another experiment material from 5 g O. ostertagi was digested twice with 50 μg/ml TPCK-trypsin. About 33% of the original amount of ApM was released after a second digest. […] Fractions were run on SDS-PAGE on a 6-16% minigel. After Coomassie blue staining, a band located around the 116,000 region, about the size expected from tryptic digestion of O12 was located in the fractions having the microsomal aminopeptidase activity.
A further 4.3 g of O. ostertagi was digested twice with TPCK-trypsin as above. The total aminopeptidase activity solubilised equalled 455 nmoles/min (Table 6). The high speed supernatants from the first and second digests (Trypsin HS1 & HS2) were buffer exchanged with ConA buffer A and run on a ConA sepharose column. The start material applied to the column was enriched for ApM activity, having a ratio of ApM:ApA of 18:1. All the ApM activity bound to the column (there was none in the wash-through); and 67% of this was recovered by elution with 0.5M methylglucopyranoside+0.2M methylmannoside. (Thus the use of two sugars in the eluting buffer more than doubled ApM recovery from the ConA column.) Fractions containing ApM activity were pooled, concentrated and subjected to gel filtration (on an FPLC Superdex 75 HR10/30 (Pharmacia) column). […]

**Q.** Which results are given for `CC(C)C[C@@H](N)[C@H](O)C(=O)N[C@H](C(=O)N[C@H](C(=O)N[C@@H](CC(=O)O)C(=O)O)C(C)C)C(C)C` [Amaststin, amastatin]?
**A.** inhibition of pig ApA versus ApM (pig ApA and ApM): better inhibitor of pig ApA than of ApM; α-Glu-pNA enzyme activity (Con A Oo12 ApA activity; inhibitor 10 μM): 0.282 nmoles/min/10 μl ConA O12; α-Glu-pNA enzyme inhibition (Con A Oo12 ApA activity; inhibitor 10 μM): 12%; α-Glu-pNA enzyme activity (Con A Oo12 ApA activity; inhibitor 50 μM): 0.205 nmoles/min/10 μl ConA O12; α-Glu-pNA enzyme inhibition (Con A Oo12 ApA activity; inhibitor 50 μM): 36%; Leu-pNA enzyme activity (Con A Oo12 ApM activity; inhibitor 10 μM): 0.218 nmoles/min/10 μl ConA O12; Leu-pNA enzyme inhibition (Con A Oo12 ApM activity; inhibitor 10 μM): 86%; Leu-pNA enzyme activity (Con A Oo12 ApM activity; inhibitor 50 μM): 0.074 nmoles/min/10 μl ConA O12; Leu-pNA enzyme inhibition (Con A Oo12 ApM activity; inhibitor 50 μM): 95%

B1: D.biflorus lectin: biotinylated Dolichos biflorus lectin (protein)
chain: ANIQSFSFKNFNSPSFILQGDATVSSGKLQLTKVKENGIPTPSSLGRAFYSSPIQIYDKSTGAVASWATSFTVKISAPSKASFADGIAFALVPVGSEPRRNGGYLGVFDSDVYNNSAQTVAVEFDTFSNSGWDPSMKHIGIDVNSIKSIATVSWDLANGENAEILITYNAATSLLVASLVHPSRRTSYILSERVDITNELPEYVSVGFSATTGLSEGYIETHDVLSWSFASKLPDDSTAEPLDLASYLVRNVL
**Q.** For B1, which “binding of biotinylated lectin to Oc12” value (Oc12) is on record?
**A.** The value was “binds very weakly”.

B2: Trypsin: protease, Sigma, TPCK-treated type XIII, 9700 units/mg solid (protein, UniProt P00760 24-246, looked up)
Serine protease 1: IVGGYTCGANTVPYQVSLNSGYHFCGGSLINSQWVVSAAHCYKSGIQVRLGEDNINVVEGNEQFISASKSIVHPSYNSNTLNNDIMLIKLKSAASLNSRVASISLPTSCASAGTQCLISGWGNTKSSGTSYPDVLKCLKAPILSDSSCKSAYPGQITSNMFCAGYLEGGKDSCQGDSGGPVVCSGKLQGIVSWGSGCAQKNKPGVYTKVCNYVSWIKQTIASN
modifications: TPCK-treated
notes: protease, Sigma, TPCK-treated type XIII, 9700 units/mg solid
**Q.** Which results are given for B2?
**A.** Aminopeptidase M activity released by protease digestion, Met-pNA (Ostertagia ostertagi PHP; 5 μg protease/0.1 mg PHP/ml): 0.118 nmoles/min/5 μl high speed supernatant; Aminopeptidase M activity released by protease digestion, Met-pNA (Ostertagia ostertagi PHP; 50 μg protease/0.1 mg PHP/ml): 0.246 nmoles/min/5 μl high speed supernatant; Aminopeptidase M activity released by protease digestion, Met-pNA (Ostertagia ostertagi PHP; 500 μg protease/0.1 mg PHP/ml): 1.075 nmoles/min/5 μl high speed supernatant; Aminopeptidase M activity released by protease digestion, Met-pNA (Ostertagia ostertagi PHP; 1000 μg protease/0.1 mg PHP/ml): 1.273 nmoles/min/5 μl high speed supernatant; Aminopeptidase M activity released by protease digestion, Met-pNA (Ostertagia ostertagi PHP; 2000 μg protease/0.1 mg PHP/ml): 1.068 nmoles/min/5 μl high speed supernatant; release of microsomal aminopeptidase A activity ([1]; 0-50 μg TPCK-trypsin/ml): negligible; release of microsomal aminopeptidase M activity ([1]; 50 μg TPCK-trypsin (485 units), of 0.5, 5, 50 or 500 μg/ml): greatest amount; original amount of ApM released after a second digest ([1]; 5 g O. ostertagi digested twice with 50 μg/ml): About 33%
